Where two headings read alike, the source gives them in different places.
Tested on: NCI-60 standardized human tumor cell line panel
Experiment: cells
Type: cell-based
Conditions: for NCI-60 screening: Log(GI50): log10 of GI50 in M; for NCI-60 screening: Log(RedIndex): log10 reductive index vs P-CC60

For COc1cc2cc(C(=O)N3C[C@@H](CCl)c4c3cc(OC(=O)N(CCC(=O)N3CCN(C)CC3)[C@H]3CCSSC3)c3ccccc43)[nH]c2c(OC)c1OC [P-SS60-CBI-TMI], the “NCI-60 screening: Log(GI50)” value (786-0 (RE) cell line) was -6.79, the “NCI-60 screening: Log(RedIndex)” value (786-0 (RE) cell line) was 1.02 and the GI50 (786-0 (RE) cell line, read-out: NCI-60 screening: Raw GI50) was 160 nM. For the same compound, the GI50 (786-0, read-out: GI50) was 160 nM, the “NCI-60 screening: Log(GI50)” value (A498 (RE) cell line) was -6.6 and the “NCI-60 screening: Log(RedIndex)” value (A498 (RE) cell line) was 1.04. The GI50 (A498 (RE) cell line, read-out: NCI-60 screening: Raw GI50) was 250 nM, the GI50 (A498, read-out: GI50) was 250 nM and the GI50 (A549/ATCC, read-out: GI50) was 150 nM. The “NCI-60 screening: Log(GI50)” value (ACHN (RE) cell line) was -7.25, the “NCI-60 screening: Log(RedIndex)” value (ACHN (RE) cell line) was 0.94 and the GI50 (ACHN (RE) cell line, read-out: NCI-60 screening: Raw GI50) was 56 nM. For the same compound, the GI50 (ACHN, read-out: GI50) was 56 nM, the GI50 (BT-549, read-out: GI50) was 230 nM and the “NCI-60 screening: Log(GI50)” value (CAKI-1 (RE) cell line) was -6.57. The “NCI-60 screening: Log(RedIndex)” value (CAKI-1 (RE) cell line) was 0.74, the GI50 (CAKI-1 (RE) cell line, read-out: NCI-60 screening: Raw GI50) was 270 nM and the GI50 (CAKI-1, read-out: GI50) was 270 nM. For the same compound, the GI50 (CCRF-CEM, read-out: GI50) was 220 nM, the GI50 (COLO 205, read-out: GI50) was 340 nM and the “NCI-60 screening: Log(GI50)” value (DU-145 (PR) cell line) was -7.23. The “NCI-60 screening: Log(RedIndex)” value (DU-145 (PR) cell line) was 0.89, the GI50 (DU-145, read-out: GI50) was 59 nM and the GI50 (EKVX, read-out: GI50) was 320 nM. The GI50 (HCC-2998, read-out: GI50) was 160 nM, the GI50 (HCT-15, read-out: GI50) was 260 nM and the GI50 (HCT-116, read-out: GI50) was 160 nM. The GI50 (HL-60(TB), read-out: GI50) was 120 nM, the GI50 (HOP-62, read-out: GI50) was 110 nM and the GI50 (HOP-92, read-out: GI50) was 350 nM. The GI50 (HT29, read-out: GI50) was 270 nM, the “NCI-60 screening: Log(GI50)” value (IGROV1 (OV) cell line) was -6.3 and the “NCI-60 screening: Log(RedIndex)” value (IGROV1 (OV) cell line) was 0.66. It also gave a GI50 (IGROV1, read-out: GI50) of 500 nM, a GI50 (K-562, read-out: GI50) of 160 nM and a GI50 (KM12, read-out: GI50) of 270 nM. It also gave a GI50 (LOX IMVI, read-out: GI50) of 210 nM, a GI50 (M14, read-out: GI50) of 190 nM and a GI50 (MALME-3M, read-out: GI50) of 280 nM. The GI50 (MCF7, read-out: GI50) was 35 nM, the GI50 (MDA-MB-435, read-out: GI50) was 210 nM and the GI50 (MDA-MB-468, read-out: GI50) was 170 nM. The GI50 (MOLT-4, read-out: GI50) was 90 nM, the “GI50/IC50, mean” value (NCI-60 vs ProliFiler, 19 overlapping cell lines) was 4.0 and the GI50 (NCI-H23, read-out: GI50) was 55 nM. The GI50 (NCI-H226, read-out: GI50) was 430 nM, the “NCI-60 screening: Log(GI50)” value (NCI-H460 (LC) cell line) was -7.25 and the “NCI-60 screening: Log(RedIndex)” value (NCI-H460 (LC) cell line) was 0.96. For the same compound, the GI50 (NCI-H460 (LC) cell line, read-out: NCI-60 screening: Raw GI50) was 56 nM, the GI50 (NCI-H460, read-out: GI50) was 56 nM and the “NCI-60 screening: Log(GI50)” value (NCI-H522 (LC) cell line) was -6.58. For the same compound, the “NCI-60 screening: Log(RedIndex)” value (NCI-H522 (LC) cell line) was 0.81, the GI50 (NCI-H522 (LC) cell line, read-out: NCI-60 screening: Raw GI50) was 260 nM and the GI50 (NCI-H522, read-out: GI50) was 260 nM. For the same compound, the “NCI-60 screening: Log(GI50)” value (OVCAR-3 (OV) cell line) was -6.63, the “NCI-60 screening: Log(RedIndex)” value (OVCAR-3 (OV) cell line) was 0.95 and the GI50 (OVCAR-3, read-out: GI50) was 240 nM. The “NCI-60 screening: Log(GI50)” value (OVCAR-4 (OV) cell line) was -6.33, the “NCI-60 screening: Log(RedIndex)” value (OVCAR-4 (OV) cell line) was 0.7 and the GI50 (OVCAR-4, read-out: GI50) was 460 nM. The “NCI-60 screening: Log(GI50)” value (OVCAR-5 (OV) cell line) was -6.51, the “NCI-60 screening: Log(RedIndex)” value (OVCAR-5 (OV) cell line) was 1.22 and the GI50 (OVCAR-5, read-out: GI50) was 310 nM. The “NCI-60 screening: Log(GI50)” value (OVCAR-8 (OV) cell line) was -6.73, the “NCI-60 screening: Log(RedIndex)” value (OVCAR-8 (OV) cell line) was 0.95 and the GI50 (OVCAR-8 (OV) cell line, read-out: NCI-60 screening: Raw GI50) was 190 nM. The GI50 (OVCAR-8, read-out: GI50) was 190 nM, the “NCI-60 screening: Log(GI50)” value (PC-3 (PR) cell line) was -6.14 and the “NCI-60 screening: Log(RedIndex)” value (PC-3 (PR) cell line) was 0.64. For the same compound, the GI50 (PC-3, read-out: GI50) was 720 nM, the GI50 (RPMI-8226, read-out: GI50) was 220 nM and the “NCI-60 screening: Log(GI50)” value (RXF 393 (RE) cell line) was -6.83. For the same compound, the “NCI-60 screening: Log(RedIndex)” value (RXF 393 (RE) cell line) was 0.85, the GI50 (RXF 393 (RE) cell line, read-out: NCI-60 screening: Raw GI50) was 150 nM and the GI50 (RXF 393, read-out: GI50) was 150 nM. For the same compound, the GI50 (SF-268, read-out: GI50) was 190 nM, the GI50 (SF-295, read-out: GI50) was 140 nM and the GI50 (SF-539, read-out: GI50) was 170 nM. The GI50 (SK-MEL-5, read-out: GI50) was 170 nM, the GI50 (SK-MEL-28, read-out: GI50) was 290 nM and the “NCI-60 screening: Log(GI50)” value (SK-OV-3 (OV) cell line) was -6.58. The “NCI-60 screening: Log(RedIndex)” value (SK-OV-3 (OV) cell line) was 0.91, the GI50 (SK-OV-3 (OV) cell line, read-out: NCI-60 screening: Raw GI50) was 260 nM and the GI50 (SK-OV-3, read-out: GI50) was 260 nM. The “NCI-60 screening: Log(GI50)” value (SN12C (RE) cell line) was -6.54, the “NCI-60 screening: Log(RedIndex)” value (SN12C (RE) cell line) was 0.62 and the GI50 (SN12C (RE) cell line, read-out: NCI-60 screening: Raw GI50) was 290 nM. The GI50 (SN12C, read-out: GI50) was 290 nM, the GI50 (SNB-19, read-out: GI50) was 250 nM and the GI50 (SR, read-out: GI50) was 34 nM. The GI50 (SW-620, read-out: GI50) was 220 nM, the GI50 (T-47D, read-out: GI50) was 700 nM and the “NCI-60 screening: Log(GI50)” value (TK-10 (RE) cell line) was -5.47. The “NCI-60 screening: Log(RedIndex)” value (TK-10 (RE) cell line) was -0.07 and the GI50 (TK-10, read-out: GI50) was 3400 nM.

Source: paper PMC10141580, “Cyclic Dichalcogenides Extend the Reach of Bioreductive Prodrugs to Harness Thiol/Disulfide Oxidoreductases: Applications to seco-Duocarmycins Targeting the Thioredoxin System” (ACS Central Science, 2023)
